Experiment [1] is described as follows: (§1) Estrogenic activity in human ERalpha expressing MCF7:WS8 cells assessed as stimulation of cell proliferation after 7 days. The class given is functional.
The nature of experiment [2]: Antiestrogenic activity in human ERalpha expressing MCF7:WS8 cells assessed as inhibition of estradiol-induced proliferation at 1 uM after 7 days. The class given is functional, cell-based.
Another experiment concerns MCF7:WS8. Described as §1. The class given is functional.

EC50, inhibition and Activity data for nine compounds are collected here from ChEMBL document CHEMBL1156189, “Structure-function relationships of estrogenic triphenylethylenes related to endoxifen and 4-hydroxytamoxifen” (J Med Chem, 2010).

SMILES strings stand for the structures. The source made the active and inactive calls. No cut-off for these calls is given here.

For orientation: EC50 means the concentration that produces a half-maximal response.

In the case of `C[C@]12CC[C@@H]3c4ccc(O)cc4CC[C@H]3[C@@H]1CC[C@@H]2O` [ESTRADIOL], the EC50 in experiment [1] (mcf7:ws8) is 0.001 nM.

With `CCOc1ccc(/C(=C(/CC)c2ccc(O)cc2)c2ccc(O)cc2)cc1`, in experiment [1] (Homo sapiens, MCF7:WS8, 168 h, read-out: EC50), the EC50 was 4 nM. The inhibition entry in experiment [2] was “inactive”.

Turning to `CC/C(=C(\c1ccc(O)cc1)c1ccc(OCCNC)cc1)c1ccccc1`, in the experiment with MCF7:WS8, the result was inactive. Further, in experiment [2], the inhibition result was “Active”.

As for `CCC(=C(c1ccc(O)cc1)c1ccc(O)cc1)c1ccc(O)cc1`, the EC50 in experiment [1] (mcf7:ws8) was 1.5 10^-1nmol. Besides, the inhibition entry in experiment [2] was “inactive”.

Consider `CC/C(=C(\c1ccccc1)c1ccc(O)cc1)c1ccc(O)cc1`, for which, in experiment [1] (mcf7:ws8), the half-maximal effective concentration (EC50) is 1 10^-1nmol.

With `CCC(=C(c1ccc(O)cc1)c1ccc(O)cc1)c1ccccc1`, the EC50 in experiment [1] (mcf7:ws8) is 5 10^-2nmol.

In the case of `CC/C(=C(/c1ccccc1)c1ccc(O)cc1)c1ccc(O)cc1`, the EC50 in experiment [1] (mcf7:ws8) is listed as 1 10^-1nmol.

As to `CC/C(=C(/c1ccc(O)cc1)c1ccc(OCCN(C)C)cc1)c1ccccc1`, the outcome with MCF7:WS8 was inactive.

Turning to `CCC(=C(c1ccc(O)cc1)c1ccc(OCCN(C)C)cc1)c1ccccc1`, the result in the experiment on MCF7:WS8 was inactive. The inhibition result in experiment [2] is “Active”.
